Experimental data from paper PMC8220737, “Molecular docking, chemo-informatic properties, alpha-amylase, and lipase inhibition studies of benzodioxol derivatives” (BMC Chemistry, 2021).
pIC50: −log10 of the molar value. ≈ marks a conversion by molar mass, not a printed value. Where “and” joins values, the source holds several entries; their conditions need not be identical. Identical values can stand only once.

Legend:
[1] = target: T1, porcine pancreatic amylase enzyme (Sus scrofa, UniProt P00690); test: α-Amylase inhibitory activity (DNSA method); type: biochemical; conditions: for pIC50 / IC50 (µg/ml) α-amylase: five concentrations 1, 10, 50, 100, 500 µg/ml, acarbose positive control; for potency relative to acarbose, α-amylase: folds more potent than acarbose
T1 construct: purchased Frutarom (UK)
T1 sequence (P00690 16-511): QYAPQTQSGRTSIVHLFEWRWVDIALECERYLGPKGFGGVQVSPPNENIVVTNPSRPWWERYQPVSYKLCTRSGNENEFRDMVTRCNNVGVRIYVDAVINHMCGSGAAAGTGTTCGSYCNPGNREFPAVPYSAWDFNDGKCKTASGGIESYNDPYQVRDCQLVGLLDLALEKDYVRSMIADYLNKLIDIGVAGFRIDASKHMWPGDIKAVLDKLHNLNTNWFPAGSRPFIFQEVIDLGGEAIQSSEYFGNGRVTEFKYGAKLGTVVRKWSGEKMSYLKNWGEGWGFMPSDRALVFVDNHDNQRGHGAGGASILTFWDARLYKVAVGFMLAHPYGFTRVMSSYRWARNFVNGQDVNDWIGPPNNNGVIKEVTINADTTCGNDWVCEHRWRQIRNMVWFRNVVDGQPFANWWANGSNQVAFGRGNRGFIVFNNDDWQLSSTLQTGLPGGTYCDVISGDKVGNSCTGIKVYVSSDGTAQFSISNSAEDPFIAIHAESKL
From the text: The in vitro antidiabetic activity of the synthesized compounds was investigated by assessing their α-amylase inhibitory effects. Acarbose was used as a positive control.
The following materials were purchased from Frutarom (UK): β-carotene, porcine pancreatic amylase enzyme solution, starch, dinitrosalicylic acid (DNSA), methanol, trolox, gallic acid, Na2CO3, and acarbose.
The α-amylase inhibitory assessment was based on the Wickramaratne et al. protocol with some slight alterations in some steps. The experimental part was carried out by following the 3,5-dinitrosalicylic acid (DNSA) procedure. Solutions of 20 mm sodium phosphate monobasic and sodium phosphate dibasic buffer involving 6.7 mm sodium chloride (NaH2PO4 and Na2HPO4, both including 6.7 mm NaCl, pH 6.9) were constructed by partially filling the beaker with NaH2PO4 and NaCl solution; the mixture was subjected to a magnetic stirrer. In contrast, the pH was adjusted by inserting a calibrated pH electrode in the solution. Then, the Na2HPO4 and NaCl solution was gradually added until the pH reached 6.9. A weight of 5.36 g of 20 mm Na2HPO4. 7H2O and 0.39 g of 6.7 mm NaCl were dispersed in distilled water to make 1 L and a weight of 2.76 g of NaH2PO4. […] Working solutions with concentrations of 1, 10, 50, 100 and 500 µg/ml were obtained by mixing 0.01, 0.1, 0.5, 1, and 5 ml of our synthesized molecules, respectively, and then diluting them with a buffer of Na2HPO4/NaH2PO4 (0.02 M) and NaCl (0.006 M) at pH 6.9 and then brined up to 10 ml using VF (10 ml). The acarbose was considered a reference and was established following the same previous steps used for the synthesized molecules.
A starch solution with a concentration of 1% (w/v) was prepared by suspending 1000 mg of starch in 100 ml of distilled water using V.F (100 ml), and then it was kept in a water bath at 37 °C until use, with occasional mixing to prevent starch precipitation. DNSA was used as a reactive reagent to react with reducing sugars to produce 3-amino-5- nitro salicylic acid that is highly absorbent of light at about 540 nm. It was prepared by dissolving 12 g of sodium potassium tartrate tetrahydrate in 8.0 ml of 2 M NaOH (8 g in 100 ml distill. water) then further dissolved in 20 ml of 96 mm of 3.5-dinitrosalicylic acid solution.
Then, 200 μl of the amylase solution (2 units/ml) was gently shaken with 200 μl of each of the VOs established working solutions, and then this was incubated at 37 °C for 10 min. Then 200 μl of the starch solution was added to each test tube, and there was further incubation for 3 min at 37 °C. The addition of 200 μl DNSA terminated the reaction and then boiling for 10 min at 85 to 90 °C. The mixture was then cooled to room temperature and diluted with 5 ml of distilled water, and the absorbance was recorded at 540 nm using a UV–Visible spectrophotometer. Replacement of the synthesized compounds with 200 μl of buffer was established to obtain the blank sample. In this protocol, acarbose was the positive control sample.

[2] = target: T2, porcine pancreatic lipase (Sus scrofa, UniProt P00591); test: Anti-lipase activity (PNPB hydrolysis); type: biochemical; conditions: for IC50: read-out: IC50 (µg/ml) Lipase (converted); for IC50 (µg/ml) Lipase: five dilutions 40, 100, 200, 300, 400 µg/ml, orlistat positive control
T2 sequence (P00591 1-450): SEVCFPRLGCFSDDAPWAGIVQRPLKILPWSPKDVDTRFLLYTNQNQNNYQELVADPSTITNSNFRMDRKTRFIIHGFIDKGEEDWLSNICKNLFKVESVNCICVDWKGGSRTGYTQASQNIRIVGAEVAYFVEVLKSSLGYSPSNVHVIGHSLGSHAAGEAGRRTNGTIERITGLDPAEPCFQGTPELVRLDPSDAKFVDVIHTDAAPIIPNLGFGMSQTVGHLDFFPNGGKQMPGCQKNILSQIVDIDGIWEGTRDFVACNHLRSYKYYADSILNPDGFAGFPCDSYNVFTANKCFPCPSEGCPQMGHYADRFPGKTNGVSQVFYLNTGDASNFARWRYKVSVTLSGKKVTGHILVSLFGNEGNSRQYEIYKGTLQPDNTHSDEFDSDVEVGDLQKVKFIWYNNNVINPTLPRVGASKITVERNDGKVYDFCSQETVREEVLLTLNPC
Protocol: A solution of 1 mg/ml of the synthesized compounds was mixed with 10% dimethyl sulfoxide (DMSO) and then diluted with 10% DMSO to produce five dilutions (40, 100, 200, 300, and 400 µg/ml).
A freshly prepared stock solution of pancreatic lipase enzyme was established by suspending this enzyme in 10% DMSO to form 1 mg/ml. Firstly, 25 mg of lipase was suspended in a small amount of 10% DMSO, bringing the volume up to 25 ml in V.F (25 ml), this was then put in a water bath sonicator at 37 °C for 15 min. […] The pancreatic lipase inhibition assay was conducted by adopting the procedure in the references with slight modifications. From each working solution of the synthesized compounds prepared above, 200 µl of the synthesized compounds were taken and put in a separate test tube, then 100 µl of porcine pancreatic lipase (1 mg/ml) was added to it. The resulting mixture was then adjusted to 1000 µl after addition to the 700 µl of Tris–HCl solution, and then it was incubated in a water bath at 37 °C for 15 min. After the incubation, 100 µl of PNPB (p-nitrophenyl butyrate) solution was added to each test tube. This mixture was then incubated again in a water bath at 37 °C for 30 min. A solution characterized as a negative control was constructed without the synthesized compounds, using 100 µl of porcine pancreatic lipase (1 mg/ml) solution mixed with the Tris–HCl solution up to 1 ml after the addition of 900 µl. […] The % inhibition of the synthesized compounds was calculated by using the following equation: Inhibitory lipase%=Ab-As/Ab∗100

**Q.** O=C(O)Cc1cc2c(cc1C(=O)c1ccccc1Br)OCO2 [4f] was tested. Which pIC50 [1] did it give?
**A.** 5.51

**Q.** What about the “potency relative to acarbose, α-amylase” value [1] of the same compound?
**A.** five to six folds more potent than acarbose

**Q.** What about the IC50 [2] of the same compound?
**A.** 800 µM

**Q.** With COC(=O)Cc1cc2c(cc1C(=O)c1cccc(Br)c1)OCO2 [3f] as the compound, how does the “IC50 (µg/ml) α-amylase” value [1] read?
**A.** 9.29 ± 1.4 µg/mL (≈ 24.6 µM)

**Q.** What about the “IC50 (µg/ml) Lipase” value [2] of the same compound?
**A.** > 400 µg/mL

**Q.** What does the source list for O=C(O)Cc1cc2c(cc1C(=O)c1cccc(Cl)c1)OCO2 [4b]?
**A.** IC50 (µg/ml) α-amylase [1]: 1.25 ± 1.01 µg/mL (≈ 3.92 µM); potency relative to acarbose, α-amylase [1]: five to six folds more potent than acarbose; IC50 (µg/ml) Lipase [2]: > 400 µg/mL

**Q.** What does the source list for COC(=O)Cc1cc2c(cc1C(=O)c1ccccc1)OCO2 [3b]?
**A.** α-amylase inhibitory activity in words [1]: lowest activity; IC50 (µg/ml) α-amylase [1]: 61.45 ± 1.5 µg/mL (≈ 206 µM); IC50 (µg/ml) Lipase [2]: > 400 µg/mL

**Q.** With O=C(O)Cc1cc2c(cc1C(=O)c1ccccc1I)OCO2 [4d] as the compound, how does the “IC50 (µg/ml) α-amylase” value [1] read?
**A.** 7.95 ± 1.15 µg/mL (≈ 19.4 µM)

**Q.** What about the “IC50 (µg/ml) Lipase” value [2] of the same compound?
**A.** 187.7 ± 1.23 µg/mL (≈ 458 µM)

**Q.** Which results are given for COC(=O)Cc1cc2c(cc1C(=O)c1ccccc1I)OCO2 [3c]?
**A.** IC50 (µg/ml) α-amylase [1]: 39.85 ± 1.3 µg/mL (≈ 93.9 µM); IC50 (µg/ml) Lipase [2]: > 400 µg/mL

**Q.** Which results are given for COc1ccc(NC(=O)c2ccc3c(c2)OCO3)cc1OC [6a]?
**A.** IC50 (µg/ml) α-amylase [1]: 8.54 µg/mL and 8.547 ± 1.55 µg/mL; IC50 (µg/ml) Lipase [2]: 44.47 ± 2.30 µg/mL (≈ 148 µM)

**Q.** Which “IC50 (µg/ml) α-amylase” value [1] does the source give for O=C(O)Cc1cc2c(cc1C(=O)c1ccccc1Cl)OCO2 [4a] here?
**A.** 8.88 ± 2.10 µg/mL (≈ 27.9 µM)

**Q.** And the “IC50 (µg/ml) Lipase” value [2]?
**A.** > 400 µg/mL

**Q.** Which results are given for COC(=O)Cc1cc2c(cc1C(=O)c1ccccc1Br)OCO2 [3e]?
**A.** IC50 (µg/ml) α-amylase [1]: 2.57 ± 0.90 µg/mL (≈ 6.81 µM); IC50 (µg/ml) Lipase [2]: 78.37 ± 1.72 µg/mL (≈ 208 µM)

**Q.** What does the source list for COC(=O)Cc1cc2c(cc1C(=O)c1ccccc1Cl)OCO2 [3a]?
**A.** pIC50 [1]: 5.12; IC50 [2]: 437 µM

**Q.** Which “IC50 (µg/ml) α-amylase” value [1] does the source give for O=C(O)Cc1cc2c(cc1C(=O)c1cccc(Br)c1)OCO2 [4 g] here?
**A.** 4.90 ± 2.21 µg/mL (≈ 13.5 µM)

**Q.** What about the “IC50 (µg/ml) Lipase” value [2] of the same compound?
**A.** 225.8 ± 1.43 µg/mL (≈ 622 µM)

**Q.** Which “IC50 (µg/ml) α-amylase” value [1] does the source give for O=C(O)Cc1cc2c(cc1C(=O)c1ccccc1)OCO2 [4c] here?
**A.** 4.12 ± 1.63 µg/mL (≈ 14.5 µM)

**Q.** And the “IC50 (µg/ml) Lipase” value [2]?
**A.** 213.82 ± 2.1 µg/mL (≈ 752 µM)

**Q.** What does the source list for O=C(O)Cc1cc2c(cc1C(=O)c1cccc(I)c1)OCO2 [4e]?
**A.** IC50 (µg/ml) α-amylase [1]: 3.85 ± 0.98 µg/mL (≈ 9.39 µM); IC50 (µg/ml) Lipase [2]: 201.2 ± 2.37 µg/mL (≈ 491 µM)

**Q.** With COc1cc(NC(=O)c2ccc3c(c2)OCO3)cc(OC)c1 [6b] as the compound, how does the pIC50 [1] read?
**A.** 4.85

**Q.** What about the IC50 [2] of the same compound?
**A.** 335 µM

**Q.** For COC(=O)Cc1cc2c(cc1C(=O)c1cccc(I)c1)OCO2 [3d], which “IC50 (µg/ml) α-amylase” value [1] is on record?
**A.** 16.36 ± 0.75 µg/mL (≈ 38.6 µM)

**Q.** What about the “IC50 (µg/ml) Lipase” value [2] of the same compound?
**A.** 118.86 ± 2.1 µg/mL (≈ 280 µM)
